Source: US5958965A, “4-aminoethoxy indoles” (American Home Products Corporation, priority 1997, dated 1999)
Read-outs that look alike come from different tables or passages of the source.

What was measured:
dopamine D-2 receptor = target: T1, dopamine D-2 receptor (Rattus norvegicus, UniProt P61169); assay: Affinity for the dopamine D-2 receptor, 3H-spiroperidol binding in homogenized limbic brain tissue
T1 construct: homogenized limbic brain tissue is incubated with; from tissue; host or cells: limbic brain tissue, homogenized

[1] = target: T2, 5-HT1A serotonin receptor (Rattus norvegicus, UniProt P19327); assay: Displacement of [3H] 8-OHDPAT from the 5-HT1A serotonin receptor; format: binding
T2 sequence (P19327 1-422): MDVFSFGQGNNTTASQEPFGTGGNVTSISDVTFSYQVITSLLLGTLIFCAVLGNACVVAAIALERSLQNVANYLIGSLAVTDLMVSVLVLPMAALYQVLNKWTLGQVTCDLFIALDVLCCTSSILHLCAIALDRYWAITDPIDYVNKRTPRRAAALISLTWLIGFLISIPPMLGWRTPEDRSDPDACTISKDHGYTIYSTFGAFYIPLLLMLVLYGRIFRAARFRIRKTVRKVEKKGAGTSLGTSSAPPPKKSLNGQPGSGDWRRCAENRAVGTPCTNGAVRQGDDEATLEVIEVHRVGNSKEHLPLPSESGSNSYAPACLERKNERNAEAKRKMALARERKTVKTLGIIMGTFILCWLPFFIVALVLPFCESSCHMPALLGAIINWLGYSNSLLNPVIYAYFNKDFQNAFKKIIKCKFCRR
From the text: High affinity for the serotonin 5-HT1A receptor was established by testing the claimed compound's ability to displace [^3 H] 8-OHDPAT (dipropylaminotetralin) from the 5-HT1A serotonin receptor following the procedure of Hall et al., J. Neurochem. 44, 1685 (1985). […] The anxiolytic activity of buspirone is believed to be, at least partially, due to its 5-HT1A receptor affinity (Vander Maclen et al., Eur. J. Pharmacol. 1986, 129 (1-2) 133-130).

[2] = target: T2, 5-HT1A serotonin receptor; details: standard for anxiolytic activity, comparison substance; cited from earlier work
[3] = 3H-spiroperidol, limbic brain tissue, read-out: IC50 D2 Spiper

T1 sequence (P61169 whole entry): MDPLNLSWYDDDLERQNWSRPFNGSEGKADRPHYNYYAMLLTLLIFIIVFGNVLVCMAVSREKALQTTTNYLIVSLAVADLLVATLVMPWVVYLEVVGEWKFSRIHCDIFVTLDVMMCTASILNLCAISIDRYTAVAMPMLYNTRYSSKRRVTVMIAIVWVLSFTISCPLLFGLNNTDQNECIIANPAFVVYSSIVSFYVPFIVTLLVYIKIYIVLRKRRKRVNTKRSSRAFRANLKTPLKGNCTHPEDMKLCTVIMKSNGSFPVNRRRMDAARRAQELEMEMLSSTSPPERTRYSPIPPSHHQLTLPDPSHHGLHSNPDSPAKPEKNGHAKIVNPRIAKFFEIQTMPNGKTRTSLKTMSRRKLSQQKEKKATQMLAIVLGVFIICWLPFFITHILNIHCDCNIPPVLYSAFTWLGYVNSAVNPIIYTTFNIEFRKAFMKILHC

Row | SMILES | IC50 (dopamine D-2 receptor) [nM] | IC50 [1] [nM] | IC50 (dopamine D-2 receptor; [3]) [nM] | affinity for the 5-HT1A serotonin receptor [2]
1 | c1ccc(CCCCNCCOc2cccc3[nH]ccc23)cc1 [Example 1a, [2-(1 H-Indol-4-yloxy)-ethyl]-(4-phenyl-butyl)-amine] | 184 | 0.71 |  | 
2 | Clc1ccc(OCCNCc2ccccc2)c2cc[nH]c12 [Example 1b, Benzyl-[2-(7-chloro-1H-indol-4-yloxy)-ethyl]-amine] | 183 | 386 |  | 
3 | Clc1ccc(OCCNCc2ccccc2)c2c(Cl)c[nH]c12 [Example 1c, Benzyl-[2-(3,7-dichloro-1H-indol-4-yloxy)-ethyl]-amine] |  | 438 | 284 | 
4 | Clc1ccc(OCCNCc2cccs2)c2c(Cl)c[nH]c12 [Example 1f, Thien-2-ylmethyl-[2-(3,7-dichloro-1H-indol-4-yloxy)-ethyl]-amine] |  |  | 405 | 
5 | Clc1c[nH]c2cccc(OCCNCCCCc3ccccc3)c12 [Example 2a, [2-(3-Chloro-1H-indol-4-yloxy)-ethyl]-(4-phenyl-butyl)-amine] |  | 0.99 | 193 | 
6 | O=C(c1c[nH]c2c(Cl)ccc(OCCNCc3ccccc3)c12)C(F)(F)F [Example 2c, 1-[4-(2-Benzylamino-ethoxy)-7-chloro-1H-indol-3-yl]-2,2,2-trifluoro-ethanone] |  | 102 |  | 
7 | O=C(c1c[nH]c2cccc(OCCNCc3ccccc3)c12)C(F)(F)F [Example 3a, 1-[4-(2-Benzylamino-ethoxy)-1H-indol-3-yl]-2,2,2-trifluoro-ethanone] |  | 60 | 286 | 
8 | c1ccc(CNCCOc2cccc3[nH]ccc23)cc1 [Example 3b, N-Benzyl-[2-(1H-indol-4-yloxy)]-ethylamine] | 501 | 36 |  | 
9 | O=C1CC2(CCCC2)CC(=O)N1CCCCN1CCN(c2ncccn2)CC1 [buspirone] |  |  |  | potent affinity
